Source: patent publication US20250213555A1, “SUBSTITUTED TETRAHYDROFURAN ANALOGS AS MODULATORS OF SODIUM CHANNELS” (VERTEX PHARMACEUTICALS INCORPORATED, priority 2021, published 2025)

Target: human Nav 1.8 (Homo sapiens, UniProt Q9Y5Y9)
Experiment: E-VIPR assay detecting and measuring Nav inhibition properties
Format: cell-based
Settings: HEK cells expressing a truncated form of human Nav 1.8; compound numbers without "*" (not marked as run in the presence of human serum); read-out: measured IC50 value in the E-VIPR Assay
Summary of the method: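 Nav inhibition was read by E-VIPR: cells were electrically stimulated while coumarin/oxonol FRET emissions were recorded. Cells were HEK expressing a truncated human Nav 1.8 and co-transduced with KIR2.1, and were assayed in 25% final human serum.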

Sequence of human Nav 1.8 (Q9Y5Y9 126-399 limits assumed): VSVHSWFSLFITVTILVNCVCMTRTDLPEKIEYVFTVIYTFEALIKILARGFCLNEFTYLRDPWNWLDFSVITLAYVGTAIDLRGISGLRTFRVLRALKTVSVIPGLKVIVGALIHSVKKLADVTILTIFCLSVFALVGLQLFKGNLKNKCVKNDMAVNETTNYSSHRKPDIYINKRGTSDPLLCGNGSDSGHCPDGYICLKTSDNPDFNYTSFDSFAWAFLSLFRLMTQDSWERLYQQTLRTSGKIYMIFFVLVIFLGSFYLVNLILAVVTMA
Sequence of human Nav 1.8 (Q9Y5Y9 660-890 limits assumed): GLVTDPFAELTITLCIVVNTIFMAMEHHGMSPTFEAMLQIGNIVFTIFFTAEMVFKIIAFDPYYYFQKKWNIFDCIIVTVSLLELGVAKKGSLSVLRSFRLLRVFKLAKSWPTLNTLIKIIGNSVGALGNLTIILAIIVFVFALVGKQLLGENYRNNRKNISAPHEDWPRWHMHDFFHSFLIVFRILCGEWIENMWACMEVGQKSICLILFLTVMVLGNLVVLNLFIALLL
Sequence of human Nav 1.8 (Q9Y5Y9 1148-1722 limits assumed): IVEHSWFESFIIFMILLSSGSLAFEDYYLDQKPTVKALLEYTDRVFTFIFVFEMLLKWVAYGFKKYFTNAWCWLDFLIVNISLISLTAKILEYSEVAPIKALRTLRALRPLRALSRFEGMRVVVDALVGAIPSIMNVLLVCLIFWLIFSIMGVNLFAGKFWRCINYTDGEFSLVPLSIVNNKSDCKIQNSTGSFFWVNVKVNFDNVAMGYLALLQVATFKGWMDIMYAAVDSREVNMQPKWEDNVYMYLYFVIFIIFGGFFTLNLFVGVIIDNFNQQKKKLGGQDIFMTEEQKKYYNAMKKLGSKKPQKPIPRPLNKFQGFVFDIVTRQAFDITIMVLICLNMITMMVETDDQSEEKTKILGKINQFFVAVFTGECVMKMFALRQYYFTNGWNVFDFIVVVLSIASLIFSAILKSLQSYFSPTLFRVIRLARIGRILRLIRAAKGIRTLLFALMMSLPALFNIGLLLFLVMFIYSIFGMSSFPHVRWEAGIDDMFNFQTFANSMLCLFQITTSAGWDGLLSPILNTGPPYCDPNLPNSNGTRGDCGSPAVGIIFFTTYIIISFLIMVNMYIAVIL

Row | Structure (SMILES) | IC50
1 | C[C@H]1[C@@H](c2ccc(F)c(F)c2OCC(CO)CO)[C@H](C(=O)Nc2ccnc(C(N)=O)c2)O[C@@]1(C)C(F)(F)F [Compound 91, 4-((2R,3S,4S,5R)-3-(3,4-difluoro-2-(3-hydroxy-2-(hydroxymethyl)propoxy)phenyl)-4,5-dimethyl-5-(trifluoromethyl)tetrahydrofuran-2-carboxamido)picolinamide] | 100 to 1000 nM
2 | C[C@H]1[C@@H](c2ccc(F)c(F)c2OCC2(CO)COC2)[C@H](C(=O)Nc2ccnc(C(N)=O)c2)O[C@@]1(C)C(F)(F)F [Compound 94, 4-((2R,3S,4S,5R)-3-(3,4-difluoro-2-((3-(hydroxymethyl)oxetan-3-yl)methoxy)phenyl)-4,5-dimethyl-5-(trifluoromethyl)tetrahydrofuran-2-carboxamido)picolinamide] | 100 to 1000 nM
3 | C[C@H]1[C@@H](c2ccc(F)c(F)c2OCC2(CO)CCC2)[C@H](C(=O)Nc2ccnc(C(N)=O)c2)O[C@@]1(C)C(F)(F)F [Compound 97, 4-((2R,3S,4S,5R)-3-(3,4-difluoro-2-((1-(hydroxymethyl)cyclobutyl)methoxy)phenyl)-4,5-dimethyl-5-(trifluoromethyl)tetrahydrofuran-2-carboxamido)picolinamide] | 10 to 100 nM
4 | CC1C(c2ccc(F)c(F)c2OCC2CCC2O)C(C(=O)Nc2ccnc(C(N)=O)c2)OC1(C)C(F)(F)F [Compound 98, rel-4-((2R*,3S*,4S*,5R*)-3-(3,4-difluoro-2-(((15,2S)-2-hydroxycyclobutyl)methoxy)phenyl)-4,5-dimethyl-5-(trifluoromethyl)tetrahydrofuran-2-carboxamido)picolinamide] | 10 to 100 nM
5 | C[C@H]1[C@@H](c2ccc(F)c(F)c2OCCC(C)(C)O)[C@H](C(=O)Nc2ccnc(C(N)=O)c2)O[C@@]1(C)C(F)(F)F [Compound 100, 4-((2R,3S,4S,5R)-3-(3,4-difluoro-2-(3-hydroxy-3-methylbutoxy)phenyl)-4,5-dimethyl-5-(trifluoromethyl)tetrahydrofuran-2-carboxamido)picolinamide] | 10 to 100 nM
6 | C[C@H]1[C@@H](c2ccc(F)c(F)c2OC2CN(C)C2)[C@H](C(=O)Nc2ccnc(C(N)=O)c2)O[C@@]1(C)C(F)(F)F [Compound 101, 4-((2R,3S,4S,5R)-3-(3,4-difluoro-2-((1-methylazetidin-3-yl)oxy)phenyl)-4,5-dimethyl-5-(trifluoromethyl)tetrahydrofuran-2-carboxamido) picolinamide] | 10 to 100 nM
7 | C[C@H]1[C@@H](c2ccc(F)c(F)c2OCC2CN(C)C2)[C@H](C(=O)Nc2ccnc(C(N)=O)c2)O[C@@]1(C)C(F)(F)F [Compound 104, 4-((2R,3S,4S,5R)-3-(3,4-difluoro-2-((1-methylazetidin-3-yl)methoxy)phenyl)-4,5-dimethyl-5-(trifluoromethyl)tetrahydrofuran-2-carboxamido)picolinamide] | 10 to 100 nM
8 | C[C@H]1[C@@H](c2ccc(F)c(F)c2OCC2(F)CN(C)C2)[C@H](C(=O)Nc2ccnc(C(N)=O)c2)O[C@@]1(C)C(F)(F)F [Compound 105, 4-((2R,3S,4S,5R)-3-(3,4-difluoro-2-((3-fluoro-1-methylazetidin-3-yl)methoxy)phenyl)-4,5-dimethyl-5-(trifluoromethyl)tetrahydrofuran-2-carboxamido)picolinamide] | 10 to 100 nM
9 | C[C@H]1[C@@H](c2ccc(F)c(F)c2OCC2(F)CNC2)[C@H](C(=O)Nc2ccnc(C(N)=O)c2)O[C@@]1(C)C(F)(F)F [Compound 106, 4-((2R,3S,4S,5R)-3-(3,4-difluoro-2-((3-fluoroazetidin-3-yl)methoxy)phenyl)-4,5-dimethyl-5-(trifluoromethyl)tetrahydrofuran-2-carboxamido)picolinamide] | 100 to 1000 nM
10 | C[C@H]1[C@@H](c2ccc(F)c(F)c2OCCN2CCCOCC2)[C@H](C(=O)Nc2ccnc(C(N)=O)c2)O[C@@]1(C)C(F)(F)F [Compound 108, 4-((2R,3S,4S,5R)-3-(2-(2-(1,4-oxazepan-4-yl)ethoxy)-3,4-difluorophenyl)-4,5-dimethyl-5-(trifluoromethyl)tetrahydrofuran-2-carboxamido)picolinamide] | 10 to 100 nM
11 | C[C@H]1[C@@H](c2ccc(F)c(F)c2OCCN2CC3CC(C2)O3)[C@H](C(=O)Nc2ccnc(C(N)=O)c2)O[C@@]1(C)C(F)(F)F [Compound 110, 4-((2R,3S,4S,5R)-3-(2-(2-(6-oxa-3-azabicyclo[3.1.1]heptan-3-yl)ethoxy)-3,4-difluorophenyl)-4,5-dimethyl-5-(trifluoromethyl)tetrahydrofuran-2-carboxamido)picolinamide] | < 10 nM
12 | C[C@H]1[C@@H](c2ccc(F)c(F)c2OCCN2C3CCC2COC3)[C@H](C(=O)Nc2ccnc(C(N)=O)c2)O[C@@]1(C)C(F)(F)F [Compound 113, 4-((2R,3S,4S,5R)-3-(2-(2-(3-oxa-8-azabicyclo[3.2.1]octan-8-yl)ethoxy)-3,4-difluorophenyl)-4,5-dimethyl-5-(trifluoromethyl)tetrahydrofuran-2-carboxamido)picolinamide] | 10 to 100 nM
13 | CNCCOc1c([C@H]2[C@H](C(=O)Nc3ccnc(C(N)=O)c3)O[C@@](C)(C(F)(F)F)[C@H]2C)ccc(F)c1F [Compound 114, 4-((2R,3S,4S,5R)-3-(3,4-difluoro-2-(2-(methylamino)ethoxy)phenyl)-4,5-dimethyl-5-(trifluoromethyl)tetrahydrofuran-2-carboxamido)picolinamide] | 10 to 100 nM
14 | CC(C)NCCOc1c([C@H]2[C@H](C(=O)Nc3ccnc(C(N)=O)c3)O[C@@](C)(C(F)(F)F)[C@H]2C)ccc(F)c1F [Compound 115, 4-((2R,3S,4S,5R)-3-(3,4-difluoro-2-(2-(isopropylamino)ethoxy)phenyl)-4,5-dimethyl-5-(trifluoromethyl)tetrahydrofuran-2-carboxamido)picolinamide] | 100 to 1000 nM

Now from value to molecule:

Row | IC50 | Structure (SMILES)
15 | < 10 nM | C[C@H]1[C@@H](c2ccc(F)c(F)c2OCCc2cncn2C)[C@H](C(=O)Nc2ccnc(C(N)=O)c2)O[C@@]1(C)C(F)(F)F [Compound 86, 4-((2R,3S,4S,5R)-3-(3,4-difluoro-2-(2-(1-methyl-1H-imidazol-5-yl)ethoxy)phenyl)-4,5-dimethyl-5-(trifluoromethyl)tetrahydrofuran-2-carboxamido)picolinamide]
16 | 10 to 100 nM | C[C@H]1[C@@H](c2ccc(F)c(F)c2OCCc2nccn2C)[C@H](C(=O)Nc2ccnc(C(N)=O)c2)O[C@@]1(C)C(F)(F)F [Compound 87, 4-((2R,3S,4S,5R)-3-(3,4-difluoro-2-(2-(1-methyl-1H-imidazol-2-yl)ethoxy)phenyl)-4,5-dimethyl-5-(trifluoromethyl)tetrahydrofuran-2-carboxamido)picolinamide]
17 | < 10 nM | C[C@H]1[C@@H](c2ccc(F)c(F)c2OCc2cn(C)cn2)[C@H](C(=O)Nc2ccnc(C(N)=O)c2)O[C@@]1(C)C(F)(F)F [Compound 88, 4-((2R,3S,4S,5R)-3-(3,4-difluoro-2-((1-methyl-1H-imidazol-4-yl)methoxy)phenyl)-4,5-dimethyl-5-(trifluoromethyl)tetrahydrofuran-2-carboxamido)picolinamide]
18 | < 10 nM | C[C@H]1[C@@H](c2ccc(F)c(F)c2OCc2cncn2C)[C@H](C(=O)Nc2ccnc(C(N)=O)c2)O[C@@]1(C)C(F)(F)F [Compound 89, 4-((2R,3S,4S,5R)-3-(3,4-difluoro-2-((1-methyl-1H-imidazol-5-yl)methoxy)phenyl)-4,5-dimethyl-5-(trifluoromethyl)tetrahydrofuran-2-carboxamido)picolinamide]
19 | < 10 nM | CC(CO)COc1c([C@H]2[C@H](C(=O)Nc3ccnc(C(N)=O)c3)O[C@@](C)(C(F)(F)F)[C@H]2C)ccc(F)c1F (stereo partly drawn) [Compound 90, 4-((2R,3S,4S,5R)-3-(3,4-difluoro-2-(3-hydroxy-2-methylpropoxy)phenyl)-4,5-dimethyl-5-(trifluoromethyl)tetrahydrofuran-2-carboxamido)picolinamide]
20 | < 10 nM | C[C@H]1[C@@H](c2ccc(F)c(F)c2OCC2(CO)CC2)[C@H](C(=O)Nc2ccnc(C(N)=O)c2)O[C@@]1(C)C(F)(F)F [Compound 95, 4-((2R,3S,4S,5R)-3-(3,4-difluoro-2-((1-(hydroxymethyl)cyclopropyl)methoxy)phenyl)-4,5-dimethyl-5-(trifluoromethyl)tetrahydrofuran-2-carboxamido)picolinamide]
21 | 10 to 100 nM | CNC(=O)COc1c([C@H]2[C@H](C(=O)Nc3ccnc(C(N)=O)c3)O[C@@](C)(C(F)(F)F)[C@H]2C)ccc(F)c1F [Compound 96, 4-((2R,3S,4S,5R)-3-(3,4-difluoro-2-(2-(methylamino)-2-oxoethoxy)phenyl)-4,5-dimethyl-5-(trifluoromethyl)tetrahydrofuran-2-carboxamido)picolinamide]
22 | < 10 nM | C[C@@H]1CN(CCOc2c([C@H]3[C@H](C(=O)Nc4ccnc(C(N)=O)c4)O[C@@](C)(C(F)(F)F)[C@H]3C)ccc(F)c2F)CCO1 [Compound 109, 4-((2R,3S,4S,5R)-3-(3,4-difluoro-2-(2-((R)-2-methylmorpholino)ethoxy)phenyl)-4,5-dimethyl-5-(trifluoromethyl)tetrahydrofuran-2-carboxamido)picolinamide]
23 | < 10 nM | C[C@H]1CN(CCOc2c([C@H]3[C@H](C(=O)Nc4ccnc(C(N)=O)c4)O[C@@](C)(C(F)(F)F)[C@H]3C)ccc(F)c2F)CCO1 [Compound 111, 4-((2R,3S,4S,5R)-3-(3,4-difluoro-2-(2-((S)-2-methylmorpholino)ethoxy)phenyl)-4,5-dimethyl-5-(trifluoromethyl)tetrahydrofuran-2-carboxamido)picolinamide]
24 | < 10 nM | C[C@H]1[C@@H](c2ccc(F)c(F)c2OCCNCC(F)F)[C@H](C(=O)Nc2ccnc(C(N)=O)c2)O[C@@]1(C)C(F)(F)F [Compound 112, 4-((2R,3S,4S,5R)-3-(2-(2-((2,2-difluoroethyl)amino)ethoxy)-3,4-difluorophenyl)-4,5-dimethyl-5-(trifluoromethyl)tetrahydrofuran-2-carboxamido)picolinamide]
